Key:
[1] = molecular target: T1, guanylate cyclase (Oryctolagus cuniculus, UniProt G1TXB5); test: rANP activation of membrane-bound guanylate cyclase in purified cerebral microvessels; type: biochemical; design: tissues were homogenized (10 mg wet weight per milliliter); from tissue; host or cells: rabbit cerebral microvessels, choroid plexus, kidney, ciliary process, pia-arachnoid, cerebellum; 100,000 g P1 pellet; settings: purified rabbit cerebral microvessels, Fig. 1a
T1 sequence (G1TXB5 28-1056): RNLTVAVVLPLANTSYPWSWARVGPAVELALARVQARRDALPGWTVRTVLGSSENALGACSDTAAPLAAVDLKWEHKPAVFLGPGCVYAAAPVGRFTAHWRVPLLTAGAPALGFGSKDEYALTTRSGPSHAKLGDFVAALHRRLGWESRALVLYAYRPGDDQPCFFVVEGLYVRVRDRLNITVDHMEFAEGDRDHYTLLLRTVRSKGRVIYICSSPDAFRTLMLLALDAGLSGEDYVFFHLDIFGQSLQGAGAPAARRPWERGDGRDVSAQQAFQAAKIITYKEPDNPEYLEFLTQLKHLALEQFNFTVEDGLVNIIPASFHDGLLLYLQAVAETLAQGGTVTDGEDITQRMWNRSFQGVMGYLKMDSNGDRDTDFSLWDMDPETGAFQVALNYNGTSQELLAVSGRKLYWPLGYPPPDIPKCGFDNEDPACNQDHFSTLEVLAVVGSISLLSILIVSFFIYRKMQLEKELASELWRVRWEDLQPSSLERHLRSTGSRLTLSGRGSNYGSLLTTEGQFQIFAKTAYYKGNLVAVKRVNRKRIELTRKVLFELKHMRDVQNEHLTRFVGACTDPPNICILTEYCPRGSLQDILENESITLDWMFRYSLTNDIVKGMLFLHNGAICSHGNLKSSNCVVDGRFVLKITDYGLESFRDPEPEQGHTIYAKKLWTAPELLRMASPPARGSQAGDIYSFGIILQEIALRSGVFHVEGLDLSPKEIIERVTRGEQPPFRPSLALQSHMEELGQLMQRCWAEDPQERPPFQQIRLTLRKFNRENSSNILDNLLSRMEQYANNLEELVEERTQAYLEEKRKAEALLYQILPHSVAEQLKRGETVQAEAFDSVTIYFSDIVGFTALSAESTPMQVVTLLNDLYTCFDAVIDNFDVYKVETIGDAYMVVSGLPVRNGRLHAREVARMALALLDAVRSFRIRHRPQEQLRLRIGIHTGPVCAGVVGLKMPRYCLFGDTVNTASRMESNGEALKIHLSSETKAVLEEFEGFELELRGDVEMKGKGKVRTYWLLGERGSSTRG
Protocol: (§1) The effect of rANP on membrane-bound guanylate cyclase and adenylate cyclase activity in various brain-barrier tissues and tissue fractions from rabbit was compared with its activity in cerebrum and cerebellum. Guanylate cyclase was measured as the rate of cyclic GMP formation by modifications of the technique of Waldman et al., supra, incorporated herein by reference. Briefly, tissues were homogenized (10 mg wet weight per milliliter) in 50 mM tris-HCl, pH 8.0, 1 mM EDTA, 1 mM dithiothreitol, and 250 mM sucrose and centrifuged at 100,000g to obtain a P1 pellet. Reaction tubes contained (in 0.3 ml), 50 mM tris, pH 7.6, 6 mM MnCl₂, 0.5 mM 3-isobutyl, 1-methylxanthine (IBMX), 10 mM theophylline, 3 mM GTP, hormone (in 0.03 ml containing 2.5 mM ascorbic acid and 0.1% bovine serum albumin), and 0.06 ml of P1 fraction (40 to 60 ug of protein). The reaction (4 minutes at 30°C) was started by addition of GTP and terminated by addition of 0.3 ml of 150 mM sodium acetate (pH 4.0) and boiling for 3 minutes. Cyclic GMP formed was subsequently measured by radioimmunoassay as described in example 6, infra. Under these conditions, guanylate cyclase activity was linear with time and tissue concentration. Adenylate cyclase activity in P1 fractions was measured according to the method described by Nathanson, et al., Science; 204:843 (1979); Mol. Pharmacol. 18:199 (1980), see Figure 1C . […] Neurosci. […]

[2] = system: guanylate cyclase; test: Ciliary process guanylate cyclase activity (Tables 2 and 3); type: biochemical
[3] = molecular target: T1, guanylate cyclase; test: Guanylate cyclase in membrane fractions of cerebellum; type: biochemical, rabbit; design: tissues were homogenized (10 mg wet weight per milliliter); from tissue; host or cells: rabbit cerebral microvessels, choroid plexus, kidney, ciliary process, pia-arachnoid, cerebellum; 100,000 g P1 pellet
Protocol: as §1

[4] = system: guanylate cyclase; test: Guanylate cyclase in pia-arachnoid preparation; type: biochemical, rabbit
Protocol: as §1

[5] = system: guanylate cyclase; test: Guanylate cyclase in membrane fractions of cerebral cortex; type: biochemical; settings: rabbit or pig cerebral cortex membrane fractions
Protocol: as §1

[6] = system: rabbits; test: Peripheral blood pressure after intravenous injection; type: in vivo, rabbit; settings: intravenous injection of similar doses

## Ser-Leu-Arg-Arg-atriopeptin III (APIII) [rANP 1-28]
[1]
  maximum velocity of enzyme activity (Vmax): 215 % of control
[2]; Table 2, 10⁻⁶M
  CILIARY PROCESS GUANYLATE CYCLASE ACTIVITY (Percent Increase): 60 ± 27 Percent Increase
[2]; Table 3, concentration not given
  CILIARY PROCESS GUANYLATE CYCLASE ACTIVITY (Percent Increase): 74 Percent Increase
[3]
  stimulation of guanylate cyclase: moderate amount of stimulation
[4]
  degree of enzyme stimulation: 15%
[5]
  stimulation of guanylate cyclase activity: no stimulation
[6]
  peripheral blood pressure: no change
